Test: Particle size of suspensions by PCS / laser diffractometer (LD)
Type: physicochemical
Description: Wet grinding has been employed as a further grinding technique (Sandell, E., Grundriss der Galenischen Pharmazie [Principles of galenical pharmacy], Govi-Verlag GmbH, Frankfurt am Main, 1962), for example using a Premier Mill (Sandell, loc. cit.) or a ball or pearl mill (Hagers Handbuch der pharmazeutischen Praxis [Hagers handbook of pharmaceutical practice], Springer-Verlag, Berlin, 1925). Although a main population of particles in the nanometer range results when a pearl mill is used, a significant proportion of particles larger than 1 μm is still present. […] RNXP 22 was ground (Dispermat) in a pearl mill without addition of surfactant (FIG. 2: A) and with addition of 3% Tween 80 (FIG. 2: A+surfactant). The 50% diameter of the surfactant-free sample is already approx. 2 μm, i.e. 50% of the particles are >2 μm. Some of these micrometer particles can be attributed to agglomeration. As described in the literature (Sandell, loc. cit.; P. H. List, Arzneiformenlehre [Drug forms], Wissenschaftliche Verlagsgesellschaft mbH Stuttgart, 1976; Sucker, H., Speiser, P., Fuchs, P., Pharmazeutische Technologie [Pharmaceutical technology], George Thieme Verlag Stuttgart, 1978; Munzel, K., Buchi, J., Schultz, O.-E., Galenisches Praktikum [Practical galenics], Wissenschaftliche Verlagsgesellschaft mbH Stuttgart, 1959), aggregation in suspensions can be prevented by addition of surfactants (Tween 80, Pluronic F 68) or generally stabilizers (e.g. polyvinylpyrrolidone--PVP, Pluronic F 68). […] As a rule, this is also recommended by manufacturers of mills (e.g. Dyno-Mill, A. Bachoffen AG Maschinenfabrik). Surfactant-stabilized microparticles have also been patented (U.S. Pat. No. 5,246,707), it also being possible for these additionally to comprise iron particles within the microparticles in order to allow location of the particles via magnetic fields.
Another preparation method which has been known for a long time is "via humida paratum", precipitation by pouring a solution of the active compound into a non-solvent (Hagers Handbuch der pharmazeutischen Praxis [Hagers handbook of pharmaceutical practice], Springer-Verlag, Berlin, 1925). By pouring into the non-solvent, the Ostwald Mie range is rapidly passed through and a very fine precipitate separates out. The particles which have precipitated out likewise have a significant proportion in the micrometer range. […] The drug was dissolved in ethanol (3%, 20 ml) and the solution poured into 100 ml of an aqueous surfactant solution (1.2% Pluronic F68). The end of the measuring range is 80 μm, and a large fraction between approx. 18 μm to 80 μm was detected.
The powdered drug (ground in an air jet, particles up to more than 25 μm) was rubbed in a grinding dish with a concentrated surfactant solution for wetting, and the remaining aqua dest. was then added, while stirring. Alternatively, the drug powder can also be introduced into a surfactant solution by stirring. […] The average particle diameter of the parent suspensions (=suspension with 0 cycles), measured with the laser diffractometer, and of the resulting nanosuspensions by PCS (PI=polydispersity index):
Preparation of the suspension and subsequent homogenization as in example 1. […] To monitor the decrease in the particles also in the size range from 1 μm to several μm as a function of the number of cycles, the samples were analysed with the LD. The results were evaluated by plotting the 99% diameter against the number of cycles (FIG. 6). […]

[1] = ground in an air jet, LD (FIG. 1)

50% LD diameter (ground in a pearl mill, surfactant-free sample (FIG. 2: A)): approx. 2 μm
particles >1 μm [1]: 92%
particles in the range below 1,000 nm [1]: 8%
particles smaller than 25 μm [1]: 100%
Structure (SMILES): C[C@@H]1CN(c2nc(N(CCO)CC(C)(C)O)c3nc(-c4ccccc4)c(N4C[C@@H](C)O[C@@H](C)C4)nc3n2)C[C@H](C)O1 [RMKP 22, 4-[N-(2-hydroxy-2-methylpropyl)-ethanolamine]-2.7-bis(cis-2.6-dimethylmorpholin-4-yl)-6-phenyl-pteridine]
effect of surfactant on diameters of the volume distribution (pearl mill, addition of 3% Tween 80 (FIG. 2: A+surfactant)): only a slight reduction in the diameters of the volume distribution

From patent US5858410A, “Pharmaceutical nanosuspensions for medicament administration as systems with increased saturation solubility and rate of solution” (Medac Gesellschaft Fur Klinische Spezialpraparate, priority 1994, dated 1999)
